Target: T1, BRD9 (Homo sapiens, UniProt Q9H8M2)
T1 sequence (Q9H8M2 1-597): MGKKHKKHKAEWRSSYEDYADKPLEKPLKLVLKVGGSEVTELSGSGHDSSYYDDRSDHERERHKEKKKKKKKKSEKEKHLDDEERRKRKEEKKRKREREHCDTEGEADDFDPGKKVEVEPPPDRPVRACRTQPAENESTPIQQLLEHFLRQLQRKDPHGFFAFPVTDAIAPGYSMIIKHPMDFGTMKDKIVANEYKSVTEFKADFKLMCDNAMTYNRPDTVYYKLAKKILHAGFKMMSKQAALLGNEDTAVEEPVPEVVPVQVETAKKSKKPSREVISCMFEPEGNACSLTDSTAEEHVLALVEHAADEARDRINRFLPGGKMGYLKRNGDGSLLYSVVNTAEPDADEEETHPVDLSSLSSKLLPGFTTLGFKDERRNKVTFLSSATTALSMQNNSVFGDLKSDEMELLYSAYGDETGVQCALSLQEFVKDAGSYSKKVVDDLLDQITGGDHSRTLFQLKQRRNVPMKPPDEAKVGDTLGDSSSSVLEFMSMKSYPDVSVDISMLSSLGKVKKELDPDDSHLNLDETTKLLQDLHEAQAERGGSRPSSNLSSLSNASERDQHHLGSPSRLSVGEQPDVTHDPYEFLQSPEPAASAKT
Test: Degradation of BRD9 (IF), immunofluorescence in MV4-11 cells, 24 hours (Assay Protocol 2)
Format: cell-based
Set-up: A suspension of MV4-11 cells (ATCC CRL-9591) was prepared; host or cells: MV4-11
Conditions: BRD9 degradation; for DC50: Assay protocol 2, read-out: DC50; for Dmax: MV4-11, Assay protocol 2, read-out: Dmax
Procedure, shortened: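 MV4-11 cells treated with compound 24 h at 37° C., then fixed, permeabilised and immunostained for BRD9 (anti-BRD9 E4Q3F, Alexa 647 secondary, Hoechst counterstain). High-content imaging quantified nuclear BRD9 signal; % BRD9 remaining normalised to DMSO and 100 nM CFT-8634 controls.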

| Structure (SMILES) | DC50 | Dmax |
| --- | --- | --- |
| COc1cc(-c2cn(C)c(=O)c(C)c2C)cc(OC)c1CN1CCN(Cc2cccc3c2CCN(C(=O)/C(C#N)=C/C(C)(C)C)C3C)CC12CC2 (mixture of isomers) [Compound B103, (E/Z)-2-(5-((4-(2,6-dimethoxy-4-(1,4,5-trimethyl-6-oxo-1,6-dihydropyridin-3-yl)benzyl)-4,7-diazaspiro[2.5]octan-7-yl)methyl)-1-methyl-1,2,3,4-tetrahydroisoquinoline-2-carbonyl)-4,4-dimethylpent-2-enenitrile] | 1.25 to 10 nM | > 75% |
| COc1cc(-c2cn(C)c(=O)c3[nH]ncc23)cc(OC)c1CN1CCN(Cc2cccc3c2CCN(C(=O)/C(C#N)=C/C(C)(C)C)C3C)C2(CC2)C1 (mixture of isomers) [Compound B104, (E/Z)-2-(5-((7-(2,6-dimethoxy-4-(6-methyl-7-oxo-6,7-dihydro-1H-pyrazolo[3,4-c]pyridin-4-yl)benzyl)-4,7-diazaspiro[2.5]octan-4-yl)methyl)-1-methyl-1,2,3,4-tetrahydroisoquinoline-2-carbonyl)-4,4-dimethylpent-2-enenitrile] | < 1.25 nM | > 75% |
| COc1cc(-c2cn(C)c(=O)c(C)c2C)cc(OC)c1CN1CCN(c2cccc(C3CCCN3C(=O)/C(C#N)=C/C(C)C)c2)CC1 (mixture of isomers) [Compound B106, (E/Z)-2-(2-(3-(4-(2,6-dimethoxy-4-(1,4,5-trimethyl-6-oxo-1,6-dihydropyridin-3-yl)benzyl)piperazin-1-yl)phenyl)pyrrolidine-1-carbonyl)-4-methylpent-2-enenitrile] | 1.25 to 10 nM | > 75% |
| COc1cc(-c2cn(C)c(=O)c3ccsc23)cc(OC)c1CN1CCN(Cc2cccc3c2CCN(C(=O)/C(C#N)=C/C(C)(C)C)C3C)C2(CC2)C1 (mixture of isomers) [Compound B107, (E/Z)-2-(5-((7-(2,6-dimethoxy-4-(5-methyl-4-oxo-4,5-dihydrothieno[3,2-c]pyridin-7-yl)benzyl)-4,7-diazaspiro[2.5]octan-4-yl)methyl)-1-methyl-1,2,3,4-tetrahydroisoquinoline-2-carbonyl)-4,4-dimethylpent-2-enenitrile] | < 1.25 nM | > 75% |
| COc1cc(-c2cn(C)c(=O)c3ccsc23)cc(OC)c1CN1CCN(Cc2cccc3c2CCN(C(=O)/C(C#N)=C/c2cccc(Br)n2)C3C)C2(CC2)C1 (mixture of isomers) [Compound B108, (E/Z)-3-(6-bromopyridin-2-yl)-2-(5-((7-(2,6-dimethoxy-4-(5-methyl-4-oxo-4,5-dihydrothieno[3,2-c]pyridin-7-yl)benzyl)-4,7-diazaspiro[2.5]octan-4-yl)methyl)-1-methyl-1,2,3,4-tetrahydroisoquinoline-2-carbonyl)acrylonitrile] | < 1.25 nM | > 75% |
| COc1cc(-c2cn(C)c(=O)c(C)c2C)cc(OC)c1CN1CCN(Cc2cccc3c2CCN(C(=O)/C(C#N)=C/c2cccc(Br)n2)C3C)C(C)(C)C1 (mixture of isomers) [Compound B109, (E/Z)-3-(6-bromopyridin-2-yl)-2-(5-((4-(2,6-dimethoxy-4-(1,4,5-trimethyl-6-oxo-1,6-dihydropyridin-3-yl)benzyl)-2,2-dimethylpiperazin-1-yl)methyl)-1-methyl-1,2,3,4-tetrahydroisoquinoline-2-carbonyl)acrylonitrile] | 1.25 to 10 nM | > 75% |
| COc1cc(-c2cn(C)c(=O)c(C)c2C)cc(OC)c1CN1C[C@H](C)N(Cc2cccc3c2CCN(C(=O)/C(C#N)=C/c2cccc(Br)n2)C3C)[C@@H](C)C1 (mixture of isomers) [Compound B110, (E/Z)-3-(6-bromopyridin-2-yl)-2-(5-(((2S,6S)-4-(2,6-dimethoxy-4-(1,4,5-trimethyl-6-oxo-1,6-dihydropyridin-3-yl)benzyl)-2,6-dimethylpiperazin-1-yl)methyl)-1-methyl-1,2,3,4-tetrahydroisoquinoline-2-carbonyl)acrylonitrile] | 25 to 1000 nM | 40 to 70% |
| COc1cc(-c2cn(C)c(=O)c(C)c2C)cc(OC)c1CN1C[C@@H](C)N(Cc2cccc3c2CCN(C(=O)/C(C#N)=C/C(C)(C)C)C3C)C[C@@H]1C (mixture of isomers) [Compound B111, (E/Z)-2-(5-(((2R,5S)-4-(2,6-dimethoxy-4-(1,4,5-trimethyl-6-oxo-1,6-dihydropyridin-3-yl)benzyl)-2,5-dimethylpiperazin-1-yl)methyl)-1-methyl-1,2,3,4-tetrahydroisoquinoline-2-carbonyl)-4,4-dimethylpent-2-enenitrile] | 10 to 25 nM | > 75% |
| COc1cc(-c2cn(C)c(=O)c(C)c2C)cc(OC)c1CN1CCN(Cc2cccc3c2CCN(C(=O)/C(C#N)=C/C(C)(C)C)C3C)C(=O)C1(C)C (mixture of isomers) [Compound B112, (E/Z)-2-(5-((4-(2,6-dimethoxy-4-(1,4,5-trimethyl-6-oxo-1,6-dihydropyridin-3-yl)benzyl)-3,3-dimethyl-2-oxopiperazin-1-yl)methyl)-1-methyl-1,2,3,4-tetrahydroisoquinoline-2-carbonyl)-4,4-dimethylpent-2-enenitrile] | 10 to 25 nM | > 75% |
| CC[C@H]1CN(Cc2c(OC)cc(-c3cn(C)c(=O)c(C)c3C)cc2OC)CCN1Cc1cccc2c1CCN(C(=O)/C(C#N)=C/C(C)(C)C)C2C (mixture of isomers) [Compound B113, (E/Z)-2-(5-(((S)-4-(2,6-dimethoxy-4-(1,4,5-trimethyl-6-oxo-1,6-dihydropyridin-3-yl)benzyl)-2-ethylpiperazin-1-yl)methyl)-1-methyl-1,2,3,4-tetrahydroisoquinoline-2-carbonyl)-4,4-dimethylpent-2-enenitrile] | 1.25 to 10 nM | > 75% |
| COc1cc(-c2cn(C)c(=O)c(C)c2C)cc(OC)c1CN1[C@H](C)CN(Cc2cccc3c2CCN(C(=O)/C(C#N)=C/C(C)(C)C)C3C)C[C@@H]1C (mixture of isomers) [Compound B114, (E/Z)-2-(5-(((3S,5R)-4-(2,6-dimethoxy-4-(1,4,5-trimethyl-6-oxo-1,6-dihydropyridin-3-yl)benzyl)-3,5-dimethylpiperazin-1-yl)methyl)-1-methyl-1,2,3,4-tetrahydroisoquinoline-2-carbonyl)-4,4-dimethylpent-2-enenitrile] | 1.25 to 10 nM | > 75% |
| COc1cc(-c2cn(C)c(=O)c(C)c2C)cc(OC)c1CN1C[C@@H](C)N(Cc2cccc3c2CCN(C(=O)/C(C#N)=C/C(C)(C)C)C3C)C[C@H]1C (mixture of isomers) [Compound B115, (E/Z)-2-(5-(((2R,5R)-4-(2,6-dimethoxy-4-(1,4,5-trimethyl-6-oxo-1,6-dihydropyridin-3-yl)benzyl)-2,5-dimethylpiperazin-1-yl)methyl)-1-methyl-1,2,3,4-tetrahydroisoquinoline-2-carbonyl)-4,4-dimethylpent-2-enenitrile] | 1.25 to 10 nM | > 75% |
| CCC(C)(C)/C=C(\C#N)C(=O)N1CCc2c(CN3CCN(Cc4c(OC)cc(-c5cn(C)c(=O)c(C)c5C)cc4OC)CC34CC4)cccc2C1C (mixture of isomers) [Compound B117, (E/Z)-2-(5-((7-(2,6-dimethoxy-4-(1,4,5-trimethyl-6-oxo-1,6-dihydropyridin-3-yl)benzyl)-4,7-diazaspiro[2.5]octan-4-yl)methyl)-1-methyl-1,2,3,4-tetrahydroisoquinoline-2-carbonyl)-4,4-dimethylhex-2-enenitrile] | 1.25 to 10 nM | > 75% |
| COc1cc(-c2cn(C)c(=O)c3[nH]ncc23)cc(OC)c1CN1CCN(Cc2cccc3c2CCN(C(=O)/C(C#N)=C/c2cccc(Br)n2)C3C)C2(CC2)C1 (mixture of isomers) [Compound B118, (E/Z)-3-(6-bromopyridin-2-yl)-2-(5-((7-(2,6-dimethoxy-4-(6-methyl-7-oxo-6,7-dihydro-1H-pyrazolo[3,4-c]pyridin-4-yl)benzyl)-4,7-diazaspiro[2.5]octan-4-yl)methyl)-1-methyl-1,2,3,4-tetrahydroisoquinoline-2-carbonyl)acrylonitrile] | < 1.25 nM | 70 to 75% |
| COc1cc(-c2cn(C)c(=O)c(C)c2C)cc(OC)c1CN1CCN(Cc2cccc3c2CCN(C(=O)/C(C#N)=C/C(C)(C)C)C3C)[C@H](C)C1 (mixture of isomers) [Compound B119, (E/Z)-2-(5-(((R)-4-(2,6-dimethoxy-4-(1,4,5-trimethyl-6-oxo-1,6-dihydropyridin-3-yl)benzyl)-2-methylpiperazin-1-yl)methyl)-1-methyl-1,2,3,4-tetrahydroisoquinoline-2-carbonyl)-4,4-dimethylpent-2-enenitrile] | 10 to 25 nM | 40 to 70% |
